Test results: patent US9302989B2 (priority 2010, dated 2016)

Target: NAMPT (Homo sapiens (Human), UniProt P43490)
Test: biochemical
Protocol: Determination of the utility of compounds having Formula (I) as binders to and inhibitors of NAMPT was performed using a Time-Resolved Fluorescence Resonance Energy Transfer (TR-FRET) binding assay.
Time-Resolved Fluorescence Resonance Energy Transfer (TR-FRET) Binding Assay of NAMPT
Plates were covered, and reactions were carried out for 2-3 hours. Plates were read with Envision (Laser Lantha low volume protocol) after 2 to 3 hours.

Sequence of NAMPT (P43490 whole entry, looked up): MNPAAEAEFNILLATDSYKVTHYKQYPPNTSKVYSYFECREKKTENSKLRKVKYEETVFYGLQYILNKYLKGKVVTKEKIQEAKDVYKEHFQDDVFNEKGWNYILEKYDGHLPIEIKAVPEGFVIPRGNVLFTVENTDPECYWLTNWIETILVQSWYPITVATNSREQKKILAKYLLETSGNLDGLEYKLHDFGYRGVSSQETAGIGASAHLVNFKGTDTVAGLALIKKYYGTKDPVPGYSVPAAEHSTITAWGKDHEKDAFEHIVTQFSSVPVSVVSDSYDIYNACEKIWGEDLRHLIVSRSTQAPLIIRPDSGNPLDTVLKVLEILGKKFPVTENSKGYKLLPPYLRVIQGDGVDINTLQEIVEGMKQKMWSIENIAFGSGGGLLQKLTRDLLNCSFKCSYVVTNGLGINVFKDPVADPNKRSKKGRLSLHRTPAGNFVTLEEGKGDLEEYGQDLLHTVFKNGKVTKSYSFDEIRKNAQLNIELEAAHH

CC(C)CCC(=O)Nc1ccc(NC(=O)N2Cc3ccccc3C2)cc1 [Example 294, N-{4-[(4-methylpentanoyl)amino]phenyl}-1,3-dihydro-2H-isoindole-2-carboxamide]
IC50: 8.14 nM
